{
  "source": "patent US20260199339A1",
  "about": "“COMBINATION THERAPY FOR TREATING ABNORMAL CELL GROWTH” (Verastem, Inc., priority 2020, published 2026)",
  "key": {"IGR-1": {"system": "IGR-1", "assay": "Cell viability after VS-6766 treatment, IGR-1", "type": "cell-based, human", "settings": "IGR-1, 48 hours"}, "WM115": {"system": "WM115", "assay": "Cell viability after VS-6766 treatment, WM115", "type": "cell-based, human", "settings": "WM115, 48 hours"}, "TOV21G": {"system": "TOV21G", "assay": "Cell viability after VS-6766 treatment, TOV21G", "type": "cell-based, human", "settings": "48 hours"}, "[1]": {"system": "KRAS/BRAF mutant human cancer cell lines", "assay": "RNA extraction and qRT-PCR of MHC-I antigen presentation genes", "type": "cell-based", "settings": "FIG. 1", "experimental": "RNA Extraction and qRT-PCR\nCells were seeded into 6-cm dishes and after an incubate overnight (17~22 hrs) cells were treated with VS-6766 for 48 hours at a concentration that gave an 80% cell viability (1 μM for A549, TOV21G and WM115, and 300 nM for SKMEL5 and IGR-1). RNA was extracted using RNeasy® Plus Mini kit (Qiagen) and converted to cDNA using the cDNA by High-Capacity cDNA Reverse Transcription Kit (Applied Biosystems). TaqMan qPCR was run using HLA-A, B2M, TAP1 and TAP-2 probes from Applied Biosystems. VIC-GAPDH probe as the house keeping gene. Each PCR reaction will be run in triplicate wells. Expression levels were computed as the difference (ΔCT) between the target gene CT and GAPDH CT."}, "[2]": {"system": "CT26 KRAS (G12D)-mutant colorectal cancer mouse models", "assay": "Syngeneic CT26 tumor mouse study, VS-6766 and/or anti-PD-1", "type": "in vivo", "settings": "VS-6766 0.5 mg/kg PO QD x 28 days; anti-PD-1 60 μg/mouse (3 mg/kg) IP BIW x 4 doses; Balb/c mice; FIG. 2A, 2B", "experimental": "CT26 tumor cells were obtained from ATCC and Balb/c mice were obtained from Shanghai Lingchang Biotechnology. Tumor challenge was initiated by subcutaneous inoculation of 3×10^5 CT26 tumor cell suspensions into the right flank of recipient mice. Tumor sizes (mm3) were measured and calculated as described above. Once tumors reached an average volume of 50-80 mm3, mice were sorted into 4 groups (n=10): vehicle (5% DMSO, 10% HPCD in sterile water, oral dosing (PO), once per day (QD), 28 days)+isotype control ([…] intraperitoneally (IP) biweekly, 4 doses; rat IgG2a clone 2A3, BioXcell), VS-6766 (0.5 mg/kg PO QD, 28 days)+isotype control, anti-PD-1 (60 μg/mouse IP biweekly, 4 doses; clone RMP1-14, BioXCell), and VS-6766+anti-PD-1. Tumors and body weights were measured 3 times per week for the duration of the study. At the time of routine monitoring, the animals were checked for any effects of tumor growth and treatments on normal behavior such as mobility, food and water consumption (by looking only), and body weight gain/loss, eye/hair matting and any other abnormal effect. For Kaplan-Meier analysis, an event was defined by death or tumor growth beyond 2,000 mm^3."}, "SKMEL5": {"system": "SKMEL5", "assay": "Cell viability after VS-6766 treatment, SKMEL5", "type": "cell-based, human", "settings": "SKMEL5, 48 hours"}, "A549": {"system": "A549", "assay": "Cell viability after VS-6766 treatment, A549", "type": "cell-based, human", "settings": "A549, 48 hours"}},
  "note": "Entries after “also recorded” stand apart in the source; their conditions may differ.",
  "data": [
    {"smiles": "CNS(=O)(=O)Nc1nccc(Cc2c(C)c3ccc(Oc4ncccn4)cc3oc2=O)c1F", "note": "[VS-6766]", "values": [
      {"measurement": "concentration that gave an 80% cell viability", "setting": "IGR-1", "value": 300, "unit": "nM"},
      {"measurement": "concentration that gave an 80% cell viability", "setting": "WM115", "value": 1, "unit": "µM"},
      {"measurement": "concentration that gave an 80% cell viability", "setting": "TOV21G", "value": 1, "unit": "µM"},
      {"measurement": "HLA-A expression", "setting": "[1]; 48 h, qRT-PCR", "value": "increased"},
      {"measurement": "TAP1 expression", "setting": "[1]; 48 h, qRT-PCR", "value": "increased"},
      {"measurement": "TAP2 expression", "setting": "[1]; 48 h, qRT-PCR", "value": "increased"},
      {"measurement": "β2M expression", "setting": "[1]; 48 h, qRT-PCR", "value": "increased"},
      {"measurement": "tumor antigen presentation (markers associated with antigen presentation, MHC-I expression)", "setting": "[1]; multiple KRAS/BRAF mutant human cancer cell lines", "value": "increase tumor antigen presentation; also recorded: upregulates"},
      {"measurement": "tumor growth / antitumor efficacy (tumor volume)", "setting": "[2]", "value": "delay tumor growth"},
      {"measurement": "concentration that gave an 80% cell viability", "setting": "SKMEL5", "value": 300, "unit": "nM"},
      {"measurement": "concentration that gave an 80% cell viability", "setting": "A549", "value": 1, "unit": "µM"}
    ]}
  ]
}
